Assay results as given in patent publication US8399436B2, “N-pyrazolyl carboxamides as CRAC channel inhibitors” (Glaxo Group Limited, priority 2009, dated 2013).
Where a name gives a salt, the structure may show the parent alone.

Target: ICRAC current (calcium release activated calcium channel) (Homo sapiens, UniProt Q96D31)
Type: cell-based
Conditions: Jurkat E6-1 cells; at a final assay concentration of 15 μM
Protocol: This ICRAC assay uses the SERCA inhibitor thapsigargin to produce calcium depletion and activate an ICRAC current. […] Changes in intracellular calcium levels are determined by the inclusion of the calcium sensitive fluorescent dye Fluo-4 and the use of the FLIPR detection system. Inhibitors of ICRAC would be expected to decrease the calcium influx upon calcium add-back, thus reducing fluorescent signal.
Jurkat E6-1 is an established immortalised T lymphocyte cell line previously shown to express a functional ICRAC current. Jurkat cells grow in suspension, are cultured in DMEM+10% FBS, maintained in T175 flasks at 37° C./5% CO2, and are subcultured twice a week with either 1:10-1:20 splits. 1 confluent T175 yields 100 ml of approximately 2×10^6 cells/ml.
Loading buffer contains; NaCl 145 mM, KCl 2.5 mM, HEPES 10 mM, Glucose 10 mM, MgCl2 1.2 mM, made up with water, then pH adjusted to 7.4 using NaOH 1 M. Finally Fluo-4AM & brilliant black are added to give a final assay concentration of 2 μM and 250 μM respectively.
The required seeding density for a 384 plate is 20,000 cells per well. […] Plates are then transferred to the FLIPR which initially measures baseline fluorescence, followed by any increase in fluorescence evoked by the online addition of a 6 mM (1.2 mM FAC) calcium solution. […]

Sequence of ICRAC current (calcium release activated calcium channel) (Q96D31 whole entry): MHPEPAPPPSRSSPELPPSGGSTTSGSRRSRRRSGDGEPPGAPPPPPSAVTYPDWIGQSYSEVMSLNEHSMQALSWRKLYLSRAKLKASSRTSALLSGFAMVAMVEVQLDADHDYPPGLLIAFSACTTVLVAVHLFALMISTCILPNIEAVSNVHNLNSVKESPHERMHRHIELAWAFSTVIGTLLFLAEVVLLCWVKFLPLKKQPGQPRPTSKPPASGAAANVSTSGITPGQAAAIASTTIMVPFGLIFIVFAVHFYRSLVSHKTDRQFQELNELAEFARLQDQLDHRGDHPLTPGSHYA
Sequence of ICRAC current (calcium release activated calcium channel) (Q13586 23-685, further chain): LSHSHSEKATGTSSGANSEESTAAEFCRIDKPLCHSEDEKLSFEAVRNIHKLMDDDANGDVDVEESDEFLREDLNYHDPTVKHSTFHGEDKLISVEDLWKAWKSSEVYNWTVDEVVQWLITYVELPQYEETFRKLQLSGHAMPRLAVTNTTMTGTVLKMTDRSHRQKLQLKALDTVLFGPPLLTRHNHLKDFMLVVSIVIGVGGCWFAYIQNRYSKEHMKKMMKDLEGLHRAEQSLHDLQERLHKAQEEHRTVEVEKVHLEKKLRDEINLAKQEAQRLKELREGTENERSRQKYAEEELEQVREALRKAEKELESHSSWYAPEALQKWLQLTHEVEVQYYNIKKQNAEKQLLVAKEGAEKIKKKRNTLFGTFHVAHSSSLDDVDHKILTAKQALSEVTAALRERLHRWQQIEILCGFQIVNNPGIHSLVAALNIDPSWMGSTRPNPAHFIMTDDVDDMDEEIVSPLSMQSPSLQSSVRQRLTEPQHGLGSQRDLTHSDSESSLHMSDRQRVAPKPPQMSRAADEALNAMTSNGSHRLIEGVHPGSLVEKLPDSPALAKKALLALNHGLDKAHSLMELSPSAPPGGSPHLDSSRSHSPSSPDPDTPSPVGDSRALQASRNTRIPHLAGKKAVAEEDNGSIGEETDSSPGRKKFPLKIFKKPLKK

| SMILES | pIC50 |
| --- | --- |
| O=C(Nc1ccn(Cc2ccc(OP(=O)([O-])[O-])cc2C(F)(F)F)n1)c1c(F)cccc1F.[Na+].[Na+] [Example 186, 4-[(3-{[(2,6-Difluorophenyl)carbonyl]amino}-1H-pyrazol-1-yl)methyl]-3-(trifluoromethyl)phenyl dihydrogen phosphate disodium salt] | 4.9 |
| O=C(c1c(F)cccc1F)N(COP(=O)(O)O)c1ccn(Cc2c(F)cccc2C(F)(F)F)n1 [Example 187, [[(2,6-Difluorophenyl)carbonyl](1-{[2-fluoro-6-(trifluoromethyl)phenyl]methyl}-1H-pyrazol-3-yl)amino]methyl dihydrogen phosphate disodium salt] | < 4.8 |
